Biological target: T1, human Trk A kinase (Homo sapiens, UniProt P04629)
T1 construct: HIS; made in house; host or cells: SF9 insect cells
Assay: Trk A Assay (Alphascreen kinase assay)
Assay type: biochemical
Details: 70 μM ATP, 20 minutes, room temperature, read-out: IC50 (Trk inhibitory activity)
Procedure: Trk A kinase activity was measured for its ability to phosphorylate synthetic tyrosine residues within a generic polypeptide substrate using an Amplified Luminescent Proximity Assay (Alphascreen) technology (PerkinElmer, 549 Albany Street, Boston, Mass.).
To measure Trk A kinase activity, the intracellular domain of a HIS-tagged human Trk A kinase (amino acids 442-796 of Trk A, Swiss-Prot Primary Accession Number P04629) was expressed in SF9 cells and purified using standard nickel column chromatography. After incubation of the kinase with a biotinylated substrate and adenosine triphosphate (ATP) for 20 minutes at room temperature, the kinase reaction was stopped by the addition of 30 mM ethylenediaminetetraacetic acid (EDTA). The reaction was performed in 384 well microtitre plates and the reaction products were detected with the addition of strepavidin coated Donor Beads and phosphotyrosine-specific antibodies coated Acceptor Beads using the EnVision Multilabel Plate Reader after an overnight incubation at room temperature.

T1 sequence (P04629 442-796): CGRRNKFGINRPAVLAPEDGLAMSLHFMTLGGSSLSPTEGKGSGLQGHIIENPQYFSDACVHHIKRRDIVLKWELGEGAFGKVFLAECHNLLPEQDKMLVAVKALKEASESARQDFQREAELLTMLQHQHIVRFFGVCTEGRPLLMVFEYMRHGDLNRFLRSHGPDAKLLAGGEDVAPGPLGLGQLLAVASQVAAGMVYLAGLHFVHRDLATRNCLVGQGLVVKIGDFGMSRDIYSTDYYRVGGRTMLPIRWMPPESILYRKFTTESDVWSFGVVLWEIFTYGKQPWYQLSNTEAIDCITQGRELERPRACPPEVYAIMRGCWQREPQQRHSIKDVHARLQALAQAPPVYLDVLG

IC50 | Structure (SMILES)
106 nM | Cc1cnc(Nc2cc(C3CC3)[nH]n2)nc1N[C@@H](CO)c1ccc(F)cc1 [Example 5, (2R)-2-({2-[(5-Cyclopropyl-1H-pyrazol-3-yl)amino]-5-methylpyrimidin-4-yl}amino)-2-(4-fluorophenyl)ethanol]
3940 nM | Cc1cc(Nc2ncc(Cl)c(N[C@@H](CO)c3ccc(F)cc3)n2)n[nH]1 [Example 7, (2R)-2-({5-Chloro-2-[(5-methyl-1H-pyrazol-3-yl)amino]pyrimidin-4-yl}amino)-2-(4-fluorophenyl)ethanol]
36 nM | C[C@H](Nc1nc(Nc2cc(C3CC3)[nH]n2)ncc1C#N)c1ccc(F)cc1 [Example 4, 2-[(5-Cyclopropyl-1H-pyrazol-3-yl)amino]-4-{[(1S)-1-(4-fluorophenyl)ethyl]amino}pyrimidine-5-carbonitrile]
